Here are results for six compounds from ChEMBL document CHEMBL1201862, “PubChem BioAssay data set” (2004).

A short description of test [1]: A cytotoxicity screen of small molecule inhibitors of the PhoP region in Salmonella typhi identified in the primary screen. [Related pubchem assays: 1850, 1864, 1985 ]. The test is classed as functional.
For the next test, the target named is T1, X-box-binding protein 1 (Homo sapiens, UniProt P17861).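 Also: confirmatory dose-response counter-screen serving a CHOP assay.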
T1 sequence (P17861 whole entry): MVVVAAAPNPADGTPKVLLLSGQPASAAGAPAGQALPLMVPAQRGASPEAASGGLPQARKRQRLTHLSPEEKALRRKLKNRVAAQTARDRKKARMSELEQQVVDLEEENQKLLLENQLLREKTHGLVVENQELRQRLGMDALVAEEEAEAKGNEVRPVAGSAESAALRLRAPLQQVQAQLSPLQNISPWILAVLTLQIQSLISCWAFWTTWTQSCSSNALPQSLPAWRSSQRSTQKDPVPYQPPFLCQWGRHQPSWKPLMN
The test is classed as functional, Cricetulus griseus.

In test [2] the target is Dual specificity protein phosphatase 3 (Homo sapiens, UniProt P51452). Kind of test: SAR VHR1 Fluorescent Assay for In Vitro dose response studies Set 2. [Related pubchem assays (depositor defined):AID1654, AID1661, AID1878]. The test is classed as functional.
Dual specificity protein phosphatase 3, sequence (P51452 whole entry): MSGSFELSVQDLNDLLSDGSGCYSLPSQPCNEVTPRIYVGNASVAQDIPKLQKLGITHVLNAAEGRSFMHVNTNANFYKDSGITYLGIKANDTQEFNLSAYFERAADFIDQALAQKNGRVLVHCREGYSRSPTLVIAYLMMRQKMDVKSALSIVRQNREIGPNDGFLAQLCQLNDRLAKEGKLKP
Test [3] can be described thus: cytotoxicity toward DRD oncogenic fibroblasts, dose response, cell-based, non-viral oncogenic, luminescence (AID 1934). The format is functional. As to conditions: Homo sapiens.
The nature of a further test: cells. The test is classed as functional, cell-based.
Test [4] in a line: inhibitors of Vif binding to APOBEC3G peptide, primary screen, biochemical, TR-FRET, GST-Vif 1-94, biotin-A3G peptide, dose response retest (AID 1117319).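 Also: inhibitors lower the FRET signal by blocking Vif and A3G binding.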 The test is classed as functional. In general terms: In TR-FRET formats the signal depends on donor and acceptor labels being close together.
Test [5] concerns the target T2, Alkaline phosphatase, tissue-nonspecific isozyme (Homo sapiens, UniProt P05186).
T2 sequence (P05186 whole entry): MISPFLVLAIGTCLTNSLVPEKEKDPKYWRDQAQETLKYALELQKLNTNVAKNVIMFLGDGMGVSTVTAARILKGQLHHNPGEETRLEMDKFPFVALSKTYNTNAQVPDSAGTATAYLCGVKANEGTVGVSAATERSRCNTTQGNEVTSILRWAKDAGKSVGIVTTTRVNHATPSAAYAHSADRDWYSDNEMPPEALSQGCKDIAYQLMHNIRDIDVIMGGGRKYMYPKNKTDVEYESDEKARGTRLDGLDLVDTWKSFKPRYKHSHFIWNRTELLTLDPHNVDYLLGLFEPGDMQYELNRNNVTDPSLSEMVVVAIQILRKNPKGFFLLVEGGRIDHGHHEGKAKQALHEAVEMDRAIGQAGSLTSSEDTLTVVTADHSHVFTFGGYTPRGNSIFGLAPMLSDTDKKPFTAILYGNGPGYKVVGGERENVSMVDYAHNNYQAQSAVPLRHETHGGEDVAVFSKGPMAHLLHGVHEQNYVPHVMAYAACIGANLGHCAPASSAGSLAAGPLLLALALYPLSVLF
Kind of test: TNAP enzyme activators, dose response, selectivity assay for mouse IAP activator project, biochemical, TNAP isozyme, mouse IAP uHTS hits (AID 488880). The test is classed as functional.

Test [6] concerns the target Glutathione-S-transferase (Schistosoma japonicum, UniProt Q26513). Kind of test: biotin-GST/anti-GST TR-FRET signal inhibitors, dose response, artefact control for Vif-APOBEC3G degradation inhibitor project, biochemical (AID 1117362). The format is functional.
The nature of test [7]: ARNT/TACC3 interaction disruptors, potency, confirmation, biochemical, AlphaScreen, cherry-picked samples (AID 651703).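 Also: His-tagged ARNT PAS-B domain paired with GST-TACC3 E629A dimer coactivator fragment; potency of inhibitors that break up the complex and lower AlphaScreen signal.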 The format is functional, Homo sapiens.
Test [8] has as its target Glucose-6-phosphate 1-dehydrogenase (Homo sapiens, UniProt P11413). Kind of test: human G6PD enzyme inhibitors, dose response, selectivity assay for P. falciparum G6PD inhibitor project, biochemical, fluorescence (AID 504792). The format is functional.
A short description of test [9]: AlphaScreen signal interference compounds, dose response, artefact control for ARNT-TACC3 interaction inhibitor project, biochemical, luminescence, cherry-pick (AID 651705).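 Also: AlphaScreen bead proximity signal that flags compounds interfering with the detection technology; potency reflects signal decrease which marks the compound as an assay artifact.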 The test is classed as functional. In general terms: Alpha assays give light when donor and acceptor beads are brought close together.
Test [10] concerns the target T3, Sentrin-specific protease 8 (Homo sapiens, UniProt Q96LD8).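 Also: kinetic enzyme assay of SENP8 cleaving a Nedd8 protein substrate, dose-response confirmation of screening hits.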
T3 sequence (Q96LD8 whole entry): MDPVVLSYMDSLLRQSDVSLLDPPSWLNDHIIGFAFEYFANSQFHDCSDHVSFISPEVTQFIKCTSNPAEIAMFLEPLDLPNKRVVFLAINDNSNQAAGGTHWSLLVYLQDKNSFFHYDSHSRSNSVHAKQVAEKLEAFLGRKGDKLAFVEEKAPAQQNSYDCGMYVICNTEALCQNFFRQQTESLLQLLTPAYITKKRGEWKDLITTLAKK
The format is functional.

The target in test [11] is 1-phosphatidylinositol 4,5-bisphosphate phosphodiesterase gamma-1 (Homo sapiens, UniProt P19174). Put plainly: Counterscreen for inhibitors of phospholipase C isozymes (PLC-B3): Fluorescence-based biochemical high throughput dose response assay to identify inhibitors of phospholipase C isozymes (PLC-gamma1).
1-phosphatidylinositol 4,5-bisphosphate phosphodiesterase gamma-1, sequence (P19174 whole entry): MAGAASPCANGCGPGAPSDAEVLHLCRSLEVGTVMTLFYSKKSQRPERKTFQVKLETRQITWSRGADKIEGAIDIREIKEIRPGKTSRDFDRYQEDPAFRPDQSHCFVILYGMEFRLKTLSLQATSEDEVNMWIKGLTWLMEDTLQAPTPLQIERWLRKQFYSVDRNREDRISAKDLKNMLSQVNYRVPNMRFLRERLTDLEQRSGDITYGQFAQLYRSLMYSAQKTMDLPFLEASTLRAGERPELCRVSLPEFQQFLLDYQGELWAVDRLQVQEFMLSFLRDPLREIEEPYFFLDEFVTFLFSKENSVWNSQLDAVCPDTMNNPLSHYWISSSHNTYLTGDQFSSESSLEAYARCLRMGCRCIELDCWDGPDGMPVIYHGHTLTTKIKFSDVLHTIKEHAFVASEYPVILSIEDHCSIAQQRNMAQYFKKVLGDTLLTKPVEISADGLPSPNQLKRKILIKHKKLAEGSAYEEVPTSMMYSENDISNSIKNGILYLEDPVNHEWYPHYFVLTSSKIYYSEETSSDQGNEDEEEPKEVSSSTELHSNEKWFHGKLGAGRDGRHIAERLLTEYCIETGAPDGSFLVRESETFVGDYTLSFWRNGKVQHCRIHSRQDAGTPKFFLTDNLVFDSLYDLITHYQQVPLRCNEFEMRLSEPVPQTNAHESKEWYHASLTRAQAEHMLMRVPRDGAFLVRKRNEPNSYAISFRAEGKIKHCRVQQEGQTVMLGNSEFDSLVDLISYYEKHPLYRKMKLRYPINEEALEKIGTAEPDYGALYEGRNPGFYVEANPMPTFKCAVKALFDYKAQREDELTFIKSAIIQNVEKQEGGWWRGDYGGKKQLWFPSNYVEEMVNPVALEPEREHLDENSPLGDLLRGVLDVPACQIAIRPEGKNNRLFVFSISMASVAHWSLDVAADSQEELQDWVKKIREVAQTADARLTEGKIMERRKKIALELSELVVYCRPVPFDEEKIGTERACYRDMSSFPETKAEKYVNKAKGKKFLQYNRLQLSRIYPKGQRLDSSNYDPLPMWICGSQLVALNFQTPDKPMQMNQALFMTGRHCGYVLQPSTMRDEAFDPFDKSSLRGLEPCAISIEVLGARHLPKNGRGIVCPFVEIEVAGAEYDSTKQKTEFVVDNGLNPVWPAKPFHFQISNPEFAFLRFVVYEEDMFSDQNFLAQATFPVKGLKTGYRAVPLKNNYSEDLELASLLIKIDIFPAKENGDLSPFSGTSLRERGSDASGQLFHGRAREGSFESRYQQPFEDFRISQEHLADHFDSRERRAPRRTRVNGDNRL
A short description of test [12]: cytotoxicity in MIN6 insulinoma cells, dose response, cytotoxicity control, cell-based, mouse insulinoma (AID 2122).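 Also: confirmatory high-throughput counterscreen run to flag cytotoxic compounds; mouse MIN-6 beta cells carrying an insulin promoter eGFP reporter.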 The test is classed as functional.
In test [13] the target is T4, Sphingosine 1-phosphate receptor 4 (Homo sapiens, UniProt O95977).
T4 sequence (O95977 whole entry): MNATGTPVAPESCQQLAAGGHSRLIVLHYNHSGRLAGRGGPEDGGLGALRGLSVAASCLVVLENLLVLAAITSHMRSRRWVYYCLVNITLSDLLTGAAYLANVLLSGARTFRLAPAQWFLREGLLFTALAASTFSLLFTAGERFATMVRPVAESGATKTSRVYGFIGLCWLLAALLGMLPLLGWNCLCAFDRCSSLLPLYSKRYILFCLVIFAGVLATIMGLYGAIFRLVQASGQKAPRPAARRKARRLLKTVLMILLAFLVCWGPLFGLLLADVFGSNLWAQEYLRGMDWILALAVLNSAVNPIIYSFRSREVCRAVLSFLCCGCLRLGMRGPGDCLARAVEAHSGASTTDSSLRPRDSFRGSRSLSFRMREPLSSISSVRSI
Kind of test: Fluorescence dose response cell-based high throughput screening assay for antagonists of the Sphingosine 1-Phosphate Receptor 4 (S1P4). [Related pubchem assays: 1524 (Confirmation in triplicates.), 1510 (Primary screen.)]. The format is functional.

Molecules are shown by their SMILES. Activity calls are given as the source filed them.

For orientation: EC50 means the concentration that produces a half-maximal response. Usually IC50 stands for the concentration that gives 50% inhibition. The AC50 is the concentration at which the activity in the assay is half-maximal.

Glutathione-S-transferase, sequence (Q26513 whole entry, the tested form may be a part): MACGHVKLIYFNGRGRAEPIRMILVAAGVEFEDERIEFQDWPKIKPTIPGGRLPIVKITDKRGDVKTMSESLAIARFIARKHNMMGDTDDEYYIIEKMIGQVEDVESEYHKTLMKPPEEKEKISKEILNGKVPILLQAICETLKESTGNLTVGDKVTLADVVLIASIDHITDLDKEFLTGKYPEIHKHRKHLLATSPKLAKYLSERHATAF
Glucose-6-phosphate 1-dehydrogenase, sequence (P11413 whole entry): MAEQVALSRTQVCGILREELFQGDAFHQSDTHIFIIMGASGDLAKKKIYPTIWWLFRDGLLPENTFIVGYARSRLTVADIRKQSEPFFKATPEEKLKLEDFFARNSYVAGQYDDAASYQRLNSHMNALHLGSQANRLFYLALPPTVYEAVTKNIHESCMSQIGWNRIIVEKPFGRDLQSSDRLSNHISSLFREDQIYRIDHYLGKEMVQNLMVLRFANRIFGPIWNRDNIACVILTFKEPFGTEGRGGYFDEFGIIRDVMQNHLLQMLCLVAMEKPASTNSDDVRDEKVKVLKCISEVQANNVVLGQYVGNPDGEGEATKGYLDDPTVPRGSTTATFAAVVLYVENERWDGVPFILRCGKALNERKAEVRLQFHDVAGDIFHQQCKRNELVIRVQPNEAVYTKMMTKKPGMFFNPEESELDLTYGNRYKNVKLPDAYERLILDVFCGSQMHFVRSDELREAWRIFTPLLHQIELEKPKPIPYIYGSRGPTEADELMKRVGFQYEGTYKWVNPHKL

On to `CCc1nnc(NS(=O)(=O)c2ccc(NC(=S)NC(=O)/C=C/c3ccc(C(C)C)cc3)cc2)s1`, for which the EC50 in [1] was > 50 µM (active). The “Absolute IC50 (XBP1)” value at X-box-binding protein 1 was 10 µM. Moreover, in test [2], the IC50 is 15 µM (active).
As for `O=C(/C=C/c1ccco1)Nc1ccc(Oc2ccccc2)cc1`, the EC50 is 18.1 µM (active) in test [3] and > 350 µM (not active) in the test “cells”. The IC50 in test [4] was > 100 µM (active).
Consider `CC1CC(=O)c2c(cc3c(-c4c(O)cc(O)c5c(O)c6c(cc45)OC(C)CC6=O)c(O)cc(O)c3c2O)O1` (stereo not given) [CEPHALOCHROMIN], for which the EC50 in test [5] was 26.7 µM (active). In addition, in [6], the IC50 was > 100 µM (active).
Turning to `COc1ccc(S(=O)(=O)Nc2cc(SCC(=O)O)c(O)c3ccccc23)cc1`, the AC50 in test [7] is 126 µM (active); in [9] it was 104 µM (active). In test [8], the IC50 is 21.1 µM (inactive).
As to `COC(=O)C(O)(c1c(C)[nH]n(-c2ccccc2)c1=O)C(F)(F)F` (stereo not given), the IC50 in test [10] is 1.15 µM (active).
For the compound `O=C1C(Nc2ccc(O)cc2)=C/C(=N/S(=O)(=O)c2cccs2)c2ccccc21`, the IC50 in test [11] was 29.3 µM (inactive); in test [12] it was 0.702 µM (active); in [13], 1.65 µM (active).
